{
  "source": "paper PMC9305971",
  "about": "“Development of [^18F]AmBF3 Tetrazine for Radiolabeling of Peptides: Preclinical Evaluation and PET Imaging of [^18F]AmBF3-PEG7-Tyr^3-Octreotide in an AR42J Pancreatic Carcinoma Model” (Bioconjugate Chemistry, 2022)",
  "key": {"[1]": {"test": "Enzymatic stability in 50% human plasma-0.01 M PBS", "assay_type": "in vitro ADME", "conditions": "50% (v/v) human plasma-0.01 M PBS, radio-HPLC", "experimental": "Lipophilicity was determined with the shake-flask method as a distribution coefficient between 0.01 M PBS and octanol. Purified radiotracer [^18F]6 (10 μL, ∼200 kBq, 1.5 nmol), [^18F]14 (20 μL, ∼260 kBq, 125 pmol), or [^18F]15 (20 μL, 144 kBq, 67 pmol) in a polypropylene tube containing 1500–2000 μL of each in a 1:1 mixture (1-octanol, 0.02 M PBS, pH 7.4) was shaken mechanically (500 rpm, 10 min) and centrifuged (1000g, 5 min), and samples from each layer (400 μL, n = 4) were measured with a γ-counter. The log D7.4 was calculated as a distribution between the two layers at pH 7.4. [^18F]6 (10 MBq, 40 nmol) diluted with 0.01 M PBS at pH 7.4 (≤1% ethanol, 5300 μL) was incubated for 180 min. At selected time points (5, 30, 60, 90, 120, 150, and 180 min), a sample (100 μL) was injected to radio-HPLC. [^18F]14 and [^18F]15 (29 MBq, 10 nmol) diluted in 2000 μL of 0.01 M PBS (≤1% ethanol) were left to incubate. A sample of [^18F]14 (100 μL) after 9 hours and [^18F]15 at selected time points between 30 and 335 min were injected into HPLC (method A). [^18F]15 (0.6 MBq, 0.134 nmol, 200 μL) formulated in ≤5% EtOH-1 × PBS was added and incubated in 2000 μL of PBS-50% human plasma at 37 °C. A 100 μL sample (at 60, 120, 180, and 240 min, n = 2) was diluted with 200 μL of cold acetonitrile and centrifuged (10,000g, 5 min). […]"}, "[2]": {"test": "Hydrolytic stability in 0.01 M PBS / formulated solution (radio-HPLC)", "assay_type": "physicochemical", "conditions": "4% ethanol-0.01 M PBS (pH 7.4), sampled at 9 h", "experimental": "(§1) Lipophilicity was determined with the shake-flask method as a distribution coefficient between 0.01 M PBS and octanol. Purified radiotracer [^18F]6 (10 μL, ∼200 kBq, 1.5 nmol), [^18F]14 (20 μL, ∼260 kBq, 125 pmol), or [^18F]15 (20 μL, 144 kBq, 67 pmol) in a polypropylene tube containing 1500–2000 μL of each in a 1:1 mixture (1-octanol, 0.02 M PBS, pH 7.4) was shaken mechanically (500 rpm, 10 min) and centrifuged (1000g, 5 min), and samples from each layer (400 μL, n = 4) were measured with a γ-counter. The log D7.4 was calculated as a distribution between the two layers at pH 7.4. [^18F]6 (10 MBq, 40 nmol) diluted with 0.01 M PBS at pH 7.4 (≤1% ethanol, 5300 μL) was incubated for 180 min. At selected time points (5, 30, 60, 90, 120, 150, and 180 min), a sample (100 μL) was injected to radio-HPLC. [^18F]14 and [^18F]15 (29 MBq, 10 nmol) diluted in 2000 μL of 0.01 M PBS (≤1% ethanol) were left to incubate. A sample of [^18F]14 (100 μL) after 9 hours and [^18F]15 at selected time points between 30 and 335 min were injected into HPLC (method A). [^18F]15 (0.6 MBq, 0.134 nmol, 200 μL) formulated in ≤5% EtOH-1 × PBS was added and incubated in 2000 μL of PBS-50% human plasma at 37 °C. A 100 μL sample (at 60, 120, 180, and 240 min, n = 2) was diluted with 200 μL of cold acetonitrile and centrifuged (10,000g, 5 min). After centrifugation, a 100 μL sample of the supernatant was injected for radio-HPLC analysis."}, "[3]": {"test": "Lipophilicity, shake-flask log D7.4 (1-octanol/PBS)", "assay_type": "physicochemical", "conditions": "1-octanol/PBS pH 7.4, n = 4", "experimental": "as §1, with “analysis. […]” for “analysis.”\nLipophilicity. The lipophilicities were determined with the shake-flask method as a distribution profile between 0.01 M PBS and octanol at pH 7.4. The distribution of the radiolabeled compound between the octanol and the PBS layers was calculated according"}, "AR42J xenografts": {"test_system": "AR42J xenografts", "test": "Ex vivo biodistribution of [18F]14 and [18F]15", "assay_type": "in vivo, Rj:NMRI-Foxn1^nu/nu mice", "experimental": "(§2) [^18F]14 and [^18F]15 in ≤4% ethanol–0.01 M PBS were administered intravenously (1.2 ± 0.0 and 2.0 ± 0.1 MBq, respectively, 0.2 nmol, 150 μL) to AR42J tumor-bearing Rj:NMRI-Foxn1^nu/nu mice. At predetermined time points (t = 30, 60, 120, and 240 min), animals were euthanized with CO2 asphyxiation and cervical dislocation, and then the organs were harvested, washed with water, and blotted dry, following with weighing and γ counting from which the % ID/g in tissues was determined."}, "[4]": {"test": "Ex vivo biodistribution of [18F]14 and [18F]15", "assay_type": "in vivo, Rj:NMRI-Foxn1^nu/nu mice", "conditions": "mouse, iv, 0.2 nmol; for tissue uptake at 1 h / tissue uptake at 2 h: i.v.; for tissue uptake at 2 h: 120 min post injection", "experimental": "as §2"}},
  "note": "Where two headings read alike, the source gives them in different places.",
  "data": [
    {"smiles": "C[C@@H](O)[C@@H]1NC(=O)[C@H](CCCCN)NC(=O)[C@@H](Cc2c[nH]c3ccccc23)NC(=O)[C@H](Cc2ccc(O)cc2)NC(=O)[C@@H](NC(=O)[C@@H](Cc2ccccc2)NC(=O)CCOCCOCCOCCOCCON=Cc2ccc(CNC(=O)OC3CCCc4cnnc(-c5ccc(CC(=O)NCC[N+](C)(C)C[B-](F)(F)F)cc5)c4CC3)cc2)CSSC[C@@H](C(=O)N[C@H](CO)[C@@H](C)O)NC1=O", "note": "(stereo partly shown) [[^18F]14]", "values": [
      {"measurement": "enzymatic stability (in words)", "setting": "[1]", "value": "a polar radiometabolite was detected"},
      {"measurement": "stability in the formulated solution", "setting": "[2]", "value": "stable"},
      {"measurement": "logD", "setting": "[3]", "value": "-0.58 ± 0.06"},
      {"measurement": "urine", "setting": "AR42J xenografts; 60 min post injection, i.v., baseline", "value": "84.9 ± 58.6", "unit": "% ID/g"},
      {"measurement": "defluorination in vivo (in words)", "setting": "AR42J xenografts; judged from bone uptake", "value": "A minor degree of defluorination could not be ruled out"},
      {"measurement": "tissue to tissue ratio at 1 h", "setting": "[4]; Rj:NMRI-Foxn1^nu/nu, tumor (AR42J xenograft) / blood, total radioactivity, 60 min post injection, baseline, read-out: T/blood ratio", "value": 0.3},
      {"measurement": "tissue uptake at 1 h", "setting": "[4]; 60 min post injection, baseline, read-out: blood", "value": "10.2 ± 2.3", "unit": "%ID/g"},
      {"measurement": "tissue uptake at 1 h", "setting": "[4]; 60 min post injection, baseline, read-out: brain", "value": "0.3 ± 0.1", "unit": "%ID/g"},
      {"measurement": "tissue uptake at 1 h", "setting": "[4]; 60 min post injection, baseline, read-out: gallbladder", "value": "17.8 ± 5.2", "unit": "%ID/g"},
      {"measurement": "tissue uptake at 1 h", "setting": "[4]; 60 min post injection, baseline, read-out: heart", "value": "2.4 ± 0.7", "unit": "%ID/g"},
      {"measurement": "tissue uptake at 1 h", "setting": "[4]; 60 min post injection, baseline, read-out: kidney", "value": "14.3 ± 4.5", "unit": "%ID/g"},
      {"measurement": "tissue uptake at 1 h", "setting": "[4]; 60 min post injection, baseline, read-out: liver", "value": "30 ± 9.4", "unit": "%ID/g"},
      {"measurement": "tissue uptake at 1 h", "setting": "[4]; 60 min post injection, baseline, read-out: lung", "value": "6.2 ± 2.4", "unit": "%ID/g"},
      {"measurement": "tissue uptake at 1 h", "setting": "[4]; 60 min post injection, baseline, read-out: muscle", "value": "0.6 ± 0.2", "unit": "%ID/g"},
      {"measurement": "tissue uptake at 1 h", "setting": "[4]; 60 min post injection, baseline, read-out: pancreas", "value": "1.1 ± 0.2", "unit": "%ID/g"},
      {"measurement": "tissue uptake at 1 h", "setting": "[4]; 60 min post injection, baseline, read-out: skin", "value": "2.1 ± 0.9", "unit": "%ID/g"},
      {"measurement": "tissue uptake at 1 h", "setting": "[4]; 60 min post injection, baseline, read-out: spleen", "value": "1.2 ± 0.5", "unit": "%ID/g"},
      {"measurement": "tissue uptake at 1 h", "setting": "[4]; 60 min post injection, baseline, read-out: urine", "value": "~85", "unit": "%ID/g"},
      {"measurement": "tissue uptake at 1 h", "setting": "[4]; 60 min post injection, blocked with octreotide, read-out: blood", "value": "7.4 ± 1.5", "unit": "%ID/g"},
      {"measurement": "tissue uptake at 1 h", "setting": "[4]; 60 min post injection, blocked with octreotide, read-out: brain", "value": "0.3 ± 0.1", "unit": "%ID/g"},
      {"measurement": "tissue uptake at 1 h", "setting": "[4]; 60 min post injection, blocked with octreotide, read-out: gallbladder", "value": "10.7 ± 6.3", "unit": "%ID/g"},
      {"measurement": "tissue uptake at 1 h", "setting": "[4]; 60 min post injection, blocked with octreotide, read-out: heart", "value": "1.9 ± 0.4", "unit": "%ID/g"},
      {"measurement": "tissue uptake at 1 h", "setting": "[4]; 60 min post injection, blocked with octreotide, read-out: kidney", "value": "11.4 ± 3.7", "unit": "%ID/g"},
      {"measurement": "tissue uptake at 1 h", "setting": "[4]; 60 min post injection, blocked with octreotide, read-out: liver", "value": "26.2 ± 15.8", "unit": "%ID/g"},
      {"measurement": "tissue uptake at 1 h", "setting": "[4]; 60 min post injection, blocked with octreotide, read-out: lung", "value": "5.5 ± 2.7", "unit": "%ID/g"},
      {"measurement": "tissue uptake at 1 h", "setting": "[4]; 60 min post injection, blocked with octreotide, read-out: muscle", "value": "0.5 ± 0.1", "unit": "%ID/g"},
      {"measurement": "tissue uptake at 1 h", "setting": "[4]; 60 min post injection, blocked with octreotide, read-out: pancreas", "value": "0.8 ± 0.5", "unit": "%ID/g"},
      {"measurement": "tissue uptake at 1 h", "setting": "[4]; 60 min post injection, blocked with octreotide, read-out: skin", "value": "1.6 ± 0.4", "unit": "%ID/g"},
      {"measurement": "tissue uptake at 1 h", "setting": "[4]; 60 min post injection, blocked with octreotide, read-out: spleen", "value": "0.9 ± 0.1", "unit": "%ID/g"},
      {"measurement": "tissue uptake at 1 h", "setting": "[4]; 60 min post injection, blocked with octreotide, read-out: urine", "value": "41.9 ± 15.7", "unit": "%ID/g"},
      {"measurement": "tissue uptake at 1 h", "setting": "[4]; large intestine with contents, 60 min post injection, baseline, read-out: L. I. (+cont.), large intestine", "value": "1.1 ± 1.1", "unit": "%ID/g"},
      {"measurement": "tissue uptake at 1 h", "setting": "[4]; large intestine with contents, 60 min post injection, blocked with octreotide, read-out: L. I. (+cont.), large intestine", "value": "0.7 ± 0.3", "unit": "%ID/g"},
      {"measurement": "tissue uptake at 1 h", "setting": "[4]; occipital bone, 60 min post injection, blocked with octreotide, read-out: bone, occipital", "value": "1.1 ± 0.5", "unit": "%ID/g"},
      {"measurement": "tissue uptake at 2 h", "setting": "[4]; occipital bone, read-out: bone, occipital", "value": "1.7 ± 0.1", "unit": "%ID/g"},
      {"measurement": "tissue uptake at 1 h", "setting": "[4]; small intestine with contents, 60 min post injection, baseline, read-out: S. I. (+cont.), small intestines", "value": "2.6 ± 0.8", "unit": "%ID/g"},
      {"measurement": "tissue uptake at 1 h", "setting": "[4]; small intestine with contents, 60 min post injection, blocked with octreotide, read-out: S. I. (+cont.), small intestines", "value": "1.9 ± 0.4", "unit": "%ID/g"},
      {"measurement": "tissue uptake at 1 h", "setting": "[4]; stomach with contents, 60 min post injection, baseline, read-out: stomach (+cont.)", "value": "0.6 ± 0.2", "unit": "%ID/g"},
      {"measurement": "tissue uptake at 1 h", "setting": "[4]; stomach with contents, 60 min post injection, blocked with octreotide, read-out: stomach (+cont.)", "value": "0.6 ± 0.2", "unit": "%ID/g"},
      {"measurement": "tissue uptake at 1 h", "setting": "[4]; tibia bone, 60 min post injection, baseline, read-out: bone, tibia", "value": "1.3 ± 0.6", "unit": "%ID/g"},
      {"measurement": "tissue uptake at 1 h", "setting": "[4]; tibia bone, 60 min post injection, blocked with octreotide, read-out: bone, tibia", "value": "1 ± 0.6", "unit": "%ID/g"},
      {"measurement": "tissue uptake at 2 h", "setting": "[4]; tibia bone, read-out: bone, tibia", "value": "2.9 ± 1.4", "unit": "%ID/g"},
      {"measurement": "tissue uptake at 1 h", "setting": "[4]; tumor, AR42J xenograft, 60 min post injection, baseline, read-out: tumor uptake", "value": "3.1 ± 0.7", "unit": "%ID/g"},
      {"measurement": "tissue uptake at 1 h", "setting": "[4]; tumor, AR42J xenograft, 60 min post injection, blocked with octreotide, read-out: tumor uptake", "value": "2.2 ± 0.6", "unit": "%ID/g"}
    ]}
  ]
}
